Measurements reported in patent US20240408081A1, “NOVEL SYNERGISTIC COMBINATIONS AND METHODS OF USE THEREOF FOR TREATING CANCERS” (UNIVERSITE DE BORDEAUX, priority 2021, published 2024).

Tested on: SU-DIPG-IVi-Luc cells implanted in the brainstem
Experiment: Orthotopic SU-DIPG-IVi-Luc brainstem glioma model in NSG mice
Type: in vivo, NOD/LtSz-scid IL2R gamma (NSG) mice
Procedure: For the mouse model, the immortalized SU-DIPG-IV line was used. SU-DIPG-IVi was transduced by a luciferase vector (Luc) with a MOI of 10. Two days after birth, 10^5 SU-DIPG-IVi-Luc cells in 2 μl were injected directly into the brainstem through the neck to a depth of 3 mm using a 2 μl NeuroSyringe (Hamilton Neuros, Dutscher, Bruxelles, Belgium) under anesthesia with 2% isoflurane and 50% oxygen enrichment. […] Tumor growth was evaluated non-invasively with anesthetized mice on a Biospace imager (Biospace Lab, Nesles la Vallée, France) 1-2 days after each treatment.
Prior to treatments, mice were micro-tattooed (Aramis kit, BiosebLab, France). Animals were weighed and then receive an i.p. injection in the lower right quadrant following IACUC recommendations. A 1 ml tuberculin syringe and a 26-gauge needle were used with an injection volume of 200 μl for a 30 g mouse (3 mg/ml), adjusted to actual weight each week. Treatment was done 3 times a week, starting at day 8. Tumor growth was evaluated non-invasively on a Biospace imager (Biospace Lab, Nesles la Vallée, France). The entire procedure was carried out on a heating mat at 37° C. The animals were shaved and anesthetized in sterile condition (under PSM-2) in boxes dedicated to imaging. […]

Q: CC[C@H](C)n1cc(C)c2c(C(=O)NCc3c(C)cc(C)[nH]c3=O)cc(-c3ccc(N4CCNCC4)nc3)cc21 [GSK-126, 1-[(2S)-butan-2-yl]-N-[(4,6-dimethyl-2-oxo-1H-pyridin-3-yl)methyl]-3-methyl-6-[6-(1-piperazinyl)-3-pyridinyl]-4-indolecarboxamide] was tested. Which “tumor growth (bioluminescence)” value (GSK-126 6 mg/kg, Atorvastatin 10 mg/kg, after four treatments) did it give?
A: No significant differences

Q: What about the “tumor growth (bioluminescence)” value (i.p. dose of 10 mg/kg, 3-times a week) of the same compound?
A: significant growth reduction
